The text below walks through data of patent US20110143406A1, “Novel (S,S) -Butanediol Dehydrogenase, Gene for the Same, and Use of the Same” (Kaneka Corporation, priority 2006, published 2011).

System in one series: not listed separately
Description: Specific oxidation activity of purified enzyme. Type of series: biochemical, Ochrobactrum sp. KNKc71-3. Particulars: (2S,3S)-2,3-butanediol 100 mM, NAD+ 2 mM, pH 8.0, 30° C. How it is done:
In the examples described below, the oxidation activity of (S,S)-butanediol dehydrogenase was determined by adding (2S,3S)-2,3-butanediol (100 mM), NAD^+ (2 mM) and an enzyme solution to 100 mM phosphate buffer (pH 8.0) and measuring the increase in absorbance at the wavelength 340 nm at 30° C. The enzyme activity reducing 1 μmol of NAD^+ to NADH per minute was defined as 1 unit.
Ammonium sulfate was added to this active fraction to a concentration of 1 M, and the mixture was submitted to a Phenyl-TOYOPEARL 650M (product of Tosoh) column (50 ml) equilibrated in advance with 10 mM phosphate buffer (pH 7.0) containing 1 M ammonium sulfate for adsorption of the enzyme. After washing the column with the same buffer, the active fraction was eluted on a linear gradient from 1 M to 0 M ammonium sulfate. Ammonium sulfate was added to this active fraction to a concentration of 1.2 M, and the mixture was submitted to a Butyl-TOYOPEARL 650S (product of Tosoh) column (25 ml) equilibrated in advance with 10 mM phosphate buffer (pH 7.0) containing 1.2 M ammonium sulfate for adsorption of the enzyme. After washing the column with the same buffer, the active fraction was eluted on a linear gradient from 1.2 M to 0 M ammonium sulfate. This active fraction was analyzed by sodium dodecyl sulfate-polyacrylamide electrophoresis and found to give a single band. […]
As to “ROB: purified (S,S)-butanediol dehydrogenase from Ochrobactrum sp. KNKc71-3, amino acid sequence SEQ ID NO:1”, the specific activity entry is given as “about 119 U/mg-protein”.

For the next series, the system named is ROB ((S,S)-butanediol dehydrogenase).
Test: not given
The series is classed as biochemical, Ochrobactrum sp. KNKc71-3. Particulars: oxidation; each compound 10 mM, NAD+ 2 mM, pH 8.0, 30° C., 1 minute; activity against (2S,3S)-2,3-butanediol taken as 100. How it is done: Using the purified ROB obtained in Example 1, oxidation activity measurement were carried out using, as substrates, optical isomers of each of 2-butanol, 2-pentanol, 1,2-propanediol, 2,3-butanediol and 3-chloro-1,2-propanediol. NAD^+ (2 mM), each compound (10 mM) and the enzyme solution were added to 100 mM phosphate buffer (pH 8.0), the reaction was allowed to proceed at 30° C. for 1 minute, and the increase in absorbance at the wavelength 340 nm.
With `C[C@H](O)[C@H](C)O` [(2S,3S)-2,3-butanediol], the “Relative activity (%)” value stood at 100%.

Turning to `OC[C@H](O)CCl` [(S)-3-chloro-1,2-propanediol], the “Relative activity (%)” value is given as 0.1%.

In the case of `C[C@@H](O)CO` [(R)-1,2-propanediol], the “Relative activity (%)” value came out at 8.0%.

With `CCC[C@H](C)O` [(S)-2-pentanol], the “Relative activity (%)” value is listed as 58.9%.

Regarding `CC(O)C(C)O` (stereo not drawn) [meso-2,3-butanediol], the “Relative activity (%)” value turned out to be 38.9%.

With `CCC[C@@H](C)O` [(R)-2-pentanol], the “Relative activity (%)” value turned out to be 2.9%.

Take `OC[C@@H](O)CCl` [(R)-3-chloro-1,2-propanedio]: the “Relative activity (%)” value came out at 3.5%.

For `C[C@@H](O)[C@@H](C)O` [(2R,3R)-2,3-butanediol], the “Relative activity (%)” value amounted to 0.6%.

`C[C@H](O)CO` [(S)-1,2-propanediol]: the “Relative activity (%)” value is reported as 16.7%.

Staying with this series, now noted: pH 8.
`CC[C@@H](C)O` [(R)-2-butanol]: the “Relative activity (%)” value came to 3.2%.

Turning to `CC[C@H](C)O` [(S)-2-butanol], the “Relative activity (%)” value stood at 44.2%.

System in the next series: not listed separately
In words: Optimum temperature for action of ROB. The series is classed as biochemical, Ochrobactrum sp. KNKc71-3. Particulars: (2S,3S)-2,3-butanediol oxidation, measured at 10 to 70° C., pH 8.0. As to the method: Using the purified ROB obtained in Example 1, (2S,3S)-2,3-butanediol oxidation activity measurements were carried out at 10 to 70° C. In the activity measurements, (2S,3S)-2,3-butanediol (0.1 M), NAD^+ 2 mM and the enzyme solution were added to 100 mM phosphate buffer (pH 8.0), the reaction was allowed to proceed at 10 to 70° C. for 1 minute, and the increase in absorbance at the wavelength 340 nm were measured.
With “ROB: purified (S,S)-butanediol dehydrogenase from Ochrobactrum sp. KNKc71-3, amino acid sequence SEQ ID NO:1”, the “optimum temperature for the activity” value worked out at 70 °C.

In another series the test system is ROB ((S,S)-butanediol dehydrogenase).
Test: not given
Type of series: biochemical, Ochrobactrum sp. KNKc71-3. Particulars: reduction; each compound 1 mM, NADH 0.167 mM, phosphate buffer pH 5.5, 30° C., 3 minutes; activity against 2,3-butanedione taken as 100.
Take `CCCCCC(C)=O` [2-heptanone]: the “Relative activity (%)” value is 3.8%.

For `CCOC(=O)CC(=O)CCl` [Ethyl 4-chloroacetoacetate], the “Relative activity (%)” value came out at 21.7%.

As for `CC(=O)C(C)=O` [2,3-butanedione], the “Relative activity (%)” value is 100%.

Consider `CCOC(=O)C(Cl)C(C)=O` (stereo not drawn) [Ethyl 2-chloroacetoacetate], for which the “Relative activity (%)” value is 58.5%.

As for `CCCCC(C)=O` [2-hexanone], the “Relative activity (%)” value is listed as 2.8%.

As to `COC(=O)CC(C)=O` [Methyl acetoacetate], the “Relative activity (%)” value was determined as 65.1%.

Consider `CCC(C)=O` [2-butanone], for which the “Relative activity (%)” value stood at 0.9%.

For `O=C(CO)CCl` [1-chloro-3-hydroxyacetone], the “Relative activity (%)” value amounted to 94.3%.

With `CC(=O)CO` [Hydroxyacetone], the “Relative activity (%)” value was found to be 17.9%.

For `CCCCCCC(C)=O` [2-octanone], the “Relative activity (%)” value worked out at 2.8%.

For the molecule `COC(=O)C(C)=O` [Methyl pyruvate], the “Relative activity (%)” value was found to be 136%.

For the molecule `CCCC(C)=O` [2-pentanone], the “Relative activity (%)” value is recorded as 2.8%.

Take `CCOC(=O)C(C)=O` [Ethyl pyruvate]: the “Relative activity (%)” value is recorded as 176%.

The next series has the same test system. In words: Substrate specificity of ROB: oxidation activity. Type of series: biochemical, Ochrobactrum sp. KNKc71-3. Particulars: each compound 10 mM, NAD+ 2 mM, phosphate buffer pH 8.0, 30° C., 1 minute, activity against 2,3-butanediol taken as 100. As to the method: Using the purified ROB obtained in Example 1, oxidation activity measurements were carried out by adding NAD^+ (2 mM), each compound (10 mM) shown in Table 2 and the enzyme solution to 100 mM phosphate buffer (pH 8.0), the reaction was allowed to proceed at 30° C. for 1 minute, and the increase in absorbance at the wavelength 340 nm was measured. The relative activity data are summarized in Table 2, with the activity against 2,3-butanediol being taken as 100.
On to `CC(C)O` [2-propanol], for which the “Relative activity (%)” value was determined as 5.1%.

In the case of `CCC(C)O` (stereo not drawn) [2-butanol], the “Relative activity (%)” value turned out to be 40.4%.

Consider `CC(O)CCCO` (stereo not drawn) [1,4-pentanediol], for which the “Relative activity (%)” value is 3.3%.

For `CC(O)C(C)O` (stereo not drawn) [2,3-butanediol], the “Relative activity (%)” value turned out to be 100%.

In the case of `CCCO` [1-propanol], the “Relative activity (%)” value was 0%.

With `CCCC(C)O` (stereo not drawn) [2-pentanol], the “Relative activity (%)” value is listed as 58.8%.

Regarding `CCCCCCC(C)O` (stereo not drawn) [2-octanol], the “Relative activity (%)” value worked out at 59.6%.

`OCC(O)CCl` (stereo not drawn) [3-chloro-1,2-propanediol]: the “Relative activity (%)” value was found to be 3.9%.

For `COC(=O)C(C)O` (stereo not drawn) [Methyl lactate], the “Relative activity (%)” value is given as 0.9%.

Regarding `CC(=O)C(C)O` (stereo not drawn) [Acetoin], the “Relative activity (%)” value stood at 0.4%.

Take `CCCC(O)CO` (stereo not drawn) [1,2-pentanediol]: the “Relative activity (%)” value is given as 4.4%.

For `CCCCO` [1-butanol], the “Relative activity (%)” value was determined as 0%.

With `CCO` [Ethanol], the “Relative activity (%)” value was 0%.

For the molecule `CO` [Methanol], the “Relative activity (%)” value came out at 0%.

As to `CCOC(=O)C(C)O` (stereo not drawn) [Ethyl lactate], the “Relative activity (%)” value is 1.6%.

Regarding `CC(O)CCO` (stereo not drawn) [1,3-butanediol], the “Relative activity (%)” value was found to be 0.5%.

For `CC(O)Cc1ccccc1` (stereo not drawn) [1-phenyl-2-propanol], the “Relative activity (%)” value is 43.0%.

Turning to `CCC(O)CO` (stereo not drawn) [1,2-butanediol], the “Relative activity (%)” value stood at 8.2%.

In the case of `CC(O)CCl` (stereo not drawn) [1-chloro-2-propanol], the “Relative activity (%)” value came out at 7.7%.

For `CCC(O)CC` [3-pentanol], the “Relative activity (%)” value came to 3.3%.

`CC(O)c1ccccc1` (stereo not drawn) [1-phenyl ethanol]: the “Relative activity (%)” value stood at 6.8%.

For `CC(O)CO` (stereo not drawn) [1,2-propanediol], the “Relative activity (%)” value is given as 57.9%.

For the next series the test system is unchanged.
Test: not given
The series is classed as biochemical, Ochrobactrum sp. KNKc71-3. Particulars: pH 8.
Turning to `[Cl-].[Cl-].[Co+2]` [CoCl2], the “Relative activity (%)” value stood at 66%.

As for `CCN1C(=O)C=CC1=O` [N-ethylmaleimide], the “Relative activity (%)” value turned out to be 93%.

For `CC(=O)[O-].[Na+]` [Sodium acetate], the “Relative activity (%)” value is on record as 96%.

For `O=C(O)CN(CCN(CC(=O)O)CC(=O)O)CC(=O)O` [EDTA], the “Relative activity (%)” value turned out to be 95%.

Still in this series, the particulars now being: reagent 0.1 mM; (2S,3S)-2,3-butanediol 0.1 M, NAD+ 2 mM, pH 8.0, 30° C.; reagent-free activity taken as 100.
With `[Cl][Hg][Cl]` [HgCl2], the “Relative activity (%)” value is reported as 41%.

Staying with this series, now noted: reagent 1.0 mM; (2S,3S)-2,3-butanediol 0.1 M, NAD+ 2 mM, pH 8.0, 30° C.; reagent-free activity taken as 100.
With `O=S(=O)([O-])[O-].[Zn+2]` [ZnSO4], the “Relative activity (%)” value is reported as 88%.

For `[Cl][Mn][Cl]` [MnCl2], the “Relative activity (%)” value was 87%.

Turning to `O=S(=O)([O-])[O-].[Cu+2]` [CuSO4], the “Relative activity (%)” value worked out at 81%.

In the case of `O=S(=O)(F)Cc1ccccc1` [Phenylmethylsulfonyl fluoride], the “Relative activity (%)” value turned out to be 75%.

Turning to `O=S(=O)([O-])[O-].[Mg+2]` [MgSO4], the “Relative activity (%)” value worked out at 91%.

For the molecule `O=[N+]([O-])[O-].[Ag+]` [AgNO3], the “Relative activity (%)” value was 30%.

In the case of `[Ca+2].[Cl-].[Cl-]` [CaCl2], the “Relative activity (%)” value came to 86%.

In the case of `[Ba+2].[Cl-].[Cl-]` [BaCl2], the “Relative activity (%)” value is given as 56%.

`O=C(O)c1cc[c]([Hg][Cl])cc1` [p-chloromercuribenzoate]: the “Relative activity (%)” value was 84%.

As for `[Cl][Hg][Cl]` [HgCl2], the “Relative activity (%)” value is 0%.
